These substances were tested against T1, streptavidin (Streptomyces avidinii, UniProt P22629) (assay: Cy5-streptavidin binding on HotSpot discovery array, 5-mer L-peptide library). Conditions: 5-mer L-peptide library array, Cy5-streptavidin; from average of three arrays.
T1 construct: purchased GE Healthcare (Little Chalfont, UK)
Excerpt: To identify hotspot sequences that bind to streptavidin (SA), we bound Cy5-SA to an array library of 2,476,099 5-mer L-peptides synthesized with 19 of 20 natural amino acids (excluding cysteine). The fluorescence signal intensity was aggregated across three independently synthesized arrays; then the 2,047 peptides with a signal-to-background ratio (S/B) >4 were selected. The data was further filtered to select 1,100 peptides for which signal intensities were highly correlated on all 3 arrays (the percentage of mean deviation to mean was <10%, see Supplementary dataset Table 2A). Most selected sequences (1,019 of 1,100) contained HP, PQ, or PM sequences: their presence would be expected in the well-known HPQ and HPM streptavidin binders[13]–[18].
The comprehensive peptide library included 2,476,099 5-mer peptides synthesized in a single copy with 19 of 20 L- or D-amino acids (excluding cysteine). Libraries were flanked on both N- and C-termini by linkers of 1 or 3 amino acids using a 3:1 glycine-serine mixture.
Cy5™-streptavidin (Cy5-SA) was purchased from GE Healthcare (Little Chalfont, UK). Freshly deprotected arrays were used in each experiment. Streptavidin binding to all arrays was performed with 0.5 µg/ml Cy5-SA either in binding buffer containing 10 mM Tris-HCl (pH 7.4), 1% alkali-soluble casein (EMD Millipore), 0.05% Tween-20 or in 10 mM Tris-HCl (pH 7.4), 4% BSA (Roche, Basel, Switzerland), 0.05% Tween-20 in a 30 mL PAP Jar container (Evergreen Scientific, Vernon, CA) overnight at 4° C. After incubation, arrays were washed in 20 mM Tris-HCl (pH 7.8), 0.2 M NaCl, 1% SDS or 1X TBS (pH 7.4) for 30 sec followed by a 1 min wash in water, and then dried by spinning in a microcentrifuge equipped with an array holder.
Cy5 fluorescence intensity of the arrays was measured with an MS200 scanner (Roche NimbleGen, Madison, WI) at resolution 2 µm, wavelength 635 nm, gain 25%, and laser intensity 100%. Cy5 signal intensities were extracted using Image Extraction Software (Roche NimbleGen). Data pre-processing, normalization, and statistical tests were performed using the language R. Data visualization and analysis was performed with the Spotfire 6.5.0 (Tibco, Boston, MA) software platform. Distance analysis and principle component analysis of distance matrices were performed with the R package PEPLIB[19].

T1 sequence (P22629 25-183): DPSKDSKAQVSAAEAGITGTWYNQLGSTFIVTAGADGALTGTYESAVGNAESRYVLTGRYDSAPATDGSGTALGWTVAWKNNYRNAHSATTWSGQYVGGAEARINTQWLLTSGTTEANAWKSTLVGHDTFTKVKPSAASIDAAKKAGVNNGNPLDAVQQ

| Substance | S/B (signal to background ratio) |
| --- | --- |
| WAHPM | 135.8 |
| VHHPM | 54.5 |
| NHPQA | 121.8 |
| YHPMV | 20.3 |
| FHPQN | 168.8 |
| RQHPM | 55.1 |
| SFHPQ | 121.6 |
| TPHPM | 44.1 |
| YAHPQ | 186.2 |
| NNHPQ | 137.3 |
| GHPMV | 21.8 |
| NHPQM | 39.3 |
| NPHPM | 40.3 |
| VDHPM | 26.0 |
| HPQGG | 131.5 |
| GNHPQ | 132.4 |
| DHPMG | 29.8 |
| GHPQG | 135.5 |
| GMHPQ | 126.3 |
| HPMGN | 22.1 |
| HWHPQ | 166.7 |
| LKHPM | 26.3 |
| HPQQN | 23.0 |
| WLHPQ | 190.9 |
| KKHPQ | 22.5 |
| TRHPQ | 156.2 |
| AVHPM | 23.8 |

| Substance | S/B (signal to background ratio) |
| --- | --- |
| IAHPM | 46.1 |
| HHPQA | 145.4 |
| TMHPQ | 120.6 |
| SGHPQ | 128.5 |
| WHPMF | 27.4 |
| WHPMM | 43.4 |
| PWHPQ | 182.5 |
| KHPQF | 52.9 |
| NDHPM | 32.0 |
| RPHPQ | 133.3 |
| PHHPQ | 140.8 |
| HSHPM | 54.9 |
| HNHPM | 37.6 |
| SLHPQ | 133.4 |
| HQHPM | 47.3 |
| WSHPQ | 215.6 |
| MQHPQ | 157.5 |
| QRHPM | 57.2 |
| NGHPQ | 144.3 |
| THPQA | 140.8 |
| TTHPM | 29.8 |
| GWHPQ | 190.5 |
| IYHPQ | 169.4 |
| YNHPQ | 193.0 |
| HPQGY | 53.6 |
| LGPFH [L-amino acid 5-mer array peptide] | 51.1 |

Same assay, conditions: 5-mer L-peptide library array, Cy5-streptavidin; from the average of three arrays

| Substance | S/B (signal to background ratio) |
| --- | --- |
| RFHPM | 59.2 |
| TKHPQ | 61.5 |
| QHPQV | 84.6 |
| DYHPQ | 103.8 |
| SHPMA | 60.4 |
| HPQNQ | 86.9 |
| YPHPM | 98.4 |
| QDHPQ | 81.1 |
| FFHPM | 89.2 |
| QKHPQ | 86.0 |
| QHPQF | 117.5 |
| QLHPQ | 117.5 |
| IEHPQ | 67.6 |
| HPQNW | 93.4 |
| VAHPQ | 118.6 |
| HVHPQ | 105.7 |
| HPQFA | 113.5 |
| HPQGN | 108.4 |
| DHPQA | 83.3 |
| LPHPM | 58.1 |
| HPQFQ | 90.6 |

| Substance | S/B (signal to background ratio) |
| --- | --- |
| LHPQV | 74.5 |
| NRHPQ | 115.2 |
| LMHPM | 66.9 |
| HPQFF | 71.6 |
| GEHPQ | 63.7 |
| HPQNS | 112.6 |
| FAHPM | 90.2 |
| EHPQG | 64.3 |
| KHPQN | 64.6 |
| THPQV | 88.9 |
| DHPQG | 77.3 |
| KPHPQ | 117.2 |
| YHHPM | 85.0 |
| LHPQN | 105.2 |
| HPQNN | 112.8 |
| HPQGT | 67.0 |
| VVHPQ | 79.7 |
| IGHPM | 72.3 |
| DRHPQ | 87.4 |
| LWHPM | 64.6 |
| EFHPQ | 100.0 |

Same assay, conditions: 5-mer L-peptide library, from the average of three arrays

| Substance | S/B (signal to background ratio) |
| --- | --- |
| RHPMR | 4.2 |
| HPMRF | 4.6 |
| WHPNR | 5.2 |
| HPMKP | 4.6 |
| FFMIM [L-amino acid 5-mer array peptide] | 5.1 |
| FHPMW | 5.1 |
| PIPDW [L-amino acid 5-mer array peptide] | 4.1 |
| QHPMK | 4.4 |
| HHPGQ | 4.3 |
| GHPMW | 4.4 |
| HPMSY | 4.8 |
| EHPMY | 4.5 |
| FMPHP | 5.0 |
| SHPQL | 4.4 |
| FHPQE | 5.1 |
| HPQYL | 4.7 |

| Substance | S/B (signal to background ratio) |
| --- | --- |
| RHPMT | 5.1 |
| HPQLY | 4.1 |
| NWEAI [L-amino acid 5-mer array peptide] | 4.1 |
| HPMQH | 4.5 |
| NWDQV [L-amino acid 5-mer array peptide] | 4.6 |
| MHPMI | 4.7 |
| HPMRH | 4.9 |
| GHPMK | 4.0 |
| HPQPW | 4.6 |
| GHPPQ | 5.2 |
| RHPQL | 4.6 |
| HPWRH | 5.0 |
| NWEAV [L-amino acid 5-mer array peptide] | 4.1 |
| MAFHF [L-amino acid 5-mer array peptide] | 4.8 |
| FDEWL [L-amino acid 5-mer array peptide] | 4.8 |

Same assay, conditions: average of three arrays, L-peptide 5-mer library

| Substance | S/B (signal to background ratio) |
| --- | --- |
| MPWRN [L-amino acid 5-mer array peptide] | 5.2 |
| FFMIM [L-amino acid 5-mer array peptide] | 5.1 |
| PIPDW [L-amino acid 5-mer array peptide] | 4.1 |
| LAFYH [L-amino acid 5-mer array peptide] | 7.8 |
| LGRYH [L-amino acid 5-mer array peptide] | 9.7 |
| NWEAI [L-amino acid 5-mer array peptide] | 4.1 |
| NWDQV [L-amino acid 5-mer array peptide] | 4.6 |
| YHETH [L-amino acid 5-mer array peptide] | 6.0 |
| NWEAV [L-amino acid 5-mer array peptide] | 4.1 |
| MAFHF [L-amino acid 5-mer array peptide] | 4.8 |
| DWDKV [L-amino acid 5-mer array peptide] | 5.7 |
| LGPFH [L-amino acid 5-mer array peptide] | 51.1 |
| FDEWL [L-amino acid 5-mer array peptide] | 4.8 |

Same assay, conditions: signal to background ratio; 5-mer L-peptide library array, Cy5-streptavidin

| Substance | S/B |
| --- | --- |
| IHPMM | 6.6 |
| LHPMM | 5.2 |
| MPWRN [L-amino acid 5-mer array peptide] | 5.2 |
| HPMGH | 15.2 |
| HPMYY | 8.3 |
| HPQRV | 5.3 |
| LAFYH [L-amino acid 5-mer array peptide] | 7.8 |
| HPQHY | 11.4 |
| HPQKN | 7.8 |
| HPWRY | 11.4 |
| GHPMF | 15.1 |
| WHPQL | 14.5 |
| HPQRN | 17.7 |
| EHPQI | 6.3 |
| PHPMY | 12.1 |
| THPMM | 11.1 |
| LGRYH [L-amino acid 5-mer array peptide] | 9.7 |
| HPQAV | 17.8 |
| IHPQW | 12.0 |

| Substance | S/B |
| --- | --- |
| HPQTA | 10.4 |
| RHPQE | 8.3 |
| HPQRP | 9.4 |
| WHPMK | 14.5 |
| HPMKN | 8.2 |
| DDHPM | 11.6 |
| HPQAM | 18.6 |
| YHETH [L-amino acid 5-mer array peptide] | 6.0 |
| HPQHS | 18.1 |
| YHPMF | 13.4 |
| HPQRQ | 9.1 |
| AHPQI | 15.7 |
| HPQPP | 6.0 |
| HPMFA | 17.2 |
| DWDKV [L-amino acid 5-mer array peptide] | 5.7 |
| PHPQD | 15.6 |
| HPMPW | 8.2 |
| QHPMY | 11.3 |
| DKHPM | 18.2 |

Source: publication PMC5608804, “Stepwise Evolution Improves Identification of Diverse Peptides Binding to a Protein Target” (Scientific Reports, 2017)
